Data set [1] addresses T1, tPA (Homo sapiens, UniProt P00750).
T1 construct: purchased Boehringer Ingelheim, Germany 10 mg vial
In words: Halo clot thrombolysis assay, tPA thrombolysis of whole blood clots. As to conditions: tPA 5 nM, 27.5% human plasma. It is filed as biochemical. As for the experimental part: (§1) We utilised a high throughput 96-well plate thrombolysis assay (“halo clot assay”) based on the procedure developed by Bonnard et al.. To reduce assay components the halo thrombus formation procedure was modified by replacing the original thrombotic mixture consisting of recombinant tissue factor and synthetic phospholipids reconstituted in 30 mM calcium, with thrombin, and reducing the pro-thrombotic volume (i.e., thrombin) from 5 to 3 µL and blood volume from 25 to 12 µL. Another modification to simplify clot formation consisted of adding the thrombin (3 µL; 500 nM in saline) to one side of the well and 12 µL of blood to the opposite side of well, before using a heat stretched Pasteur pipette with sealed end to mix the two liquids together using 4 to 5 circular motions around the edge of the well (halo clot). The original methodology involved adding the 5 μL of the clotting mixture to the edge of the well, and then using a micropipette to slowly release the 25 μL of blood to the edge of the well while at the same time maintaining a circular motion. Plates were incubated in a humidified 37 °C incubator for 1 h before use in the thrombolysis assay.
(§2) The thrombolysis assay involved adding 30 µL of Tris buffer (50 mM Tris–HCl, 100 mM NaCl, pH 7.4) with or without peptide followed by 55 µL Tris buffer containing tPA or TNK (5 nM final concentration) and 50% human plasma (final plasma concentration during thrombolysis 27.5%). The final concentration of peptide during thrombolysis ranged from 0.25 to 16 µM (note: an intravenous dose of R18D at 350 nmol/kg, which is likely to be neuroprotective achieves a Cmax of 0.7–0.9 µM in healthy male and female rats; unpublished observation). […] Following the addition of tPA or TNK into the wells, clot lysis was monitored over a 1-h period at 37 °C using a plate reader (Cytation5, BioTek, USA) by measuring absorbance at 510 nm every 1 min immediately after orbital shaking (205 rpm for 5 s). Controls consisted of wells with no thrombin (100% clot lysis; L100%) and wells with no tPA or TNK (0% clot lysis; L0%). At the 1-h time point, the percentage of thrombolysis (%T) in tPA or TNK treated samples (LTX) was calculated by transforming absorbance values based on the formula: % T = (LTX) − (L0%)/(L100%) − (L0%) × 100. In addition, during the 1-h period of clot lysis lag time and maximal activity (also known as maximum velocity or Vmax) of the thrombolysis reaction were calculated. The lag time is defined as the time interval between the first absorbance reading (time = 0) and the line of maximum slope of the thrombolysis reaction. The maximal activity is calculated from the maximum slope over the time course of the assay and reflects the capacity of an enzyme to catalyse a reaction (i.e., thrombolysis), with higher values representing higher catalytic activity (i.e., tPA/TNK induced plasmin thrombolysis).
(§3) For each thrombolysis assay, replicates for control wells (L0% and L100%) and tPA or TNK only treated wells consisted of n = 4–8. Replicates for tPA or TNK and peptide treated wells consisted of n = 4. For data analysis and graphical representations of the results, data from three independent thrombolytic assays were pooled. Studies consisted of R18D, R18 and NA-1 examined at the 0.5, 1, 2, 4, 8 or 16 µM concentrations performed concurrently on the same 96-well plate, in respective order. In addition, since R18D is known to be resistant to plasmin degradation and appeared to have the most impact on tPA or TNK thrombolysis, a separate set of three independent assays were performed for this peptide alone at concentrations of 0.25, 0.5, 1, 2, 4, 8 or 16 µM. Furthermore, the second dose study with R18D provided the opportunity to include a lower concentration (0.25 µM) of the peptide and to provide comparative data when only one peptide was examined in the thrombolysis assay per 96-well plate as opposed to examining the three peptides concurrently on the same plate. […]

In data set [2] the target is T2, TNK (Homo sapiens, UniProt P00750, H332A/K331A/N152Q/R333A/R334A/T138N).
T2 construct: purchased Boehringer Ingelheim 50 mg vial
In words: Halo clot thrombolysis assay, TNK thrombolysis of whole blood clots. It is filed as biochemical. As to conditions: concurrent study, TNK 5 nM, 27.5% human plasma. As for the experimental part: as §1, §2, §3

Another data set deals with tPA or TNK. It is filed as biochemical, human. Here is the method: as §1, §2
For each thrombolysis assay, replicates for control wells (L0% and L100%) and tPA or TNK only treated wells consisted of n = 4–8. Replicates for tPA or TNK and peptide treated wells consisted of n = 4. For data analysis and graphical representations of the results, data from three independent thrombolytic assays were pooled. Studies consisted of R18D, R18 and NA-1 examined at the 0.5, 1, 2, 4, 8 or 16 µM concentrations performed concurrently on the same 96-well plate, in respective order. […]

The target of data set [3] is T1, tPA. In words: Neuroprotective proteolytic stability after pre-incubation with tPA (glutamic acid excitotoxicity model, MTS). It counts as in vitro ADME. As to conditions: 1 or 2 h or overnight (22-24 h). Here is the method:
(§4) Neuronal cultures were maintained in CO2 incubator.
(§5) tPA (1000 µg/mL) or TNK (5000 µg/mL) resuspended in water (Baxter) were used to prepare 10 µg/mL (170 nM; note this is 34 times the concentration used in thrombolysis assay) stocks in MEM/2% B27 supplement (MEM/B27).
(§6) All data are presented as mean ± standard deviation (SD).

Data set [4] deals with T2, TNK. In words: Neuroprotective proteolytic stability after pre-incubation with TNK (glutamic acid excitotoxicity model, MTS). It is filed as in vitro ADME. As to conditions: 1 or 2 h or overnight (22-24 h). As for the experimental part: as §4, §5, §6
The target of another data set is trypsin (TrypLE Express) (Fusarium oxysporum, UniProt P35049). As to conditions: inferred from neuroprotection; peptide 2 µM, 50% TrypLE Express, 1 or 2 h or overnight (22-24 h).
The subject of another data set is plasmin. As to conditions: cited from earlier work. The source says:
Given the potential future application of the R18D, R18 and NA-1 peptides as ischaemic stroke neurotherapeutics, it is important to establish if they interfere with current and future standard of care treatments, namely alteplase (tPA; recombinant tissue plasminogen activator) and tenecteplase (TNK; a modified version of tPA) thrombolysis, which are routinely administered prior to thrombectomy. […] NA-1 is also degraded by plasmin [8]. Together, these findings confirm that peptides synthesised with D-enantiomer amino acids such as R18D, unlike peptides synthesised with L-enantiomer amino acids are highly resistant to proteolytic degradation and are likely to retain their neuroprotective efficacy ...

Data set [5] has as its target T1, tPA. As to conditions: cited from earlier work. The source says:
(§7) A potential mechanism that could negatively influence the neuroprotective efficacy of a peptide (and protein) neurotherapeutic when co-administered with a thrombolytic agent in ischaemic stroke is its proteolytic stability. For example, a peptide could be degraded directly by the proteolytic action of tPA and TNK, or indirectly by plasmin following its activation by tPA/TNK.

The conditions of data set [6]: in the order; 8 (NA-1), unpublished data (R18D); cited from earlier work. The source says: It is important to mention that the results obtained in this study are likely to overestimate any negative effects of R18D, R18 and NA-1 on tPA/TNK lag time and thrombolysis compared with what would occur clinically for several reasons. Firstly, positively charged peptides administered directly into the circulation would have a larger pool of negatively charged plasma proteins such as albumin to bind, and thus reduce any inhibitory electrostatic effects of the peptides on lag time and thrombolysis. In addition, the in vitro thrombolysis assay used in this study was performed in 27.5% plasma wh ...

A further data set relates to whole blood halo clot. Put plainly: Halo assay dose response study of tPA and TNK. It is filed as biochemical, human. As to conditions: 5 nM tPA or TNK, halo assay dose response study (Supplementary Fig. 1; assay performed without added plasma), N = 4. As for the experimental part: We utilised a high throughput 96-well plate thrombolysis assay (“halo clot assay”) based on the procedure developed by Bonnard et al.. To reduce assay components the halo thrombus formation procedure was modified by replacing the original thrombotic mixture consisting of recombinant tissue factor and synthetic phospholipids reconstituted in 30 mM calcium, with thrombin, and reducing the pro-thrombotic volume (i.e., thrombin) from 5 to 3 µL and blood volume from 25 to 12 µL. […]
The thrombolysis assay involved adding 30 µL of Tris buffer (50 mM Tris–HCl, 100 mM NaCl, […] during thrombolysis 27.5%). […] Following the addition of tPA or TNK into the wells, clot lysis was monitored over a 1-h period at 37 °C using a plate reader (Cytation5, BioTek, USA) by measuring absorbance at 510 nm every 1 min immediately after orbital shaking (205 rpm for 5 s). […] At the 1-h time point, the percentage of thrombolysis (%T) in tPA or TNK treated samples (LTX) was calculated by transforming absorbance values based on the formula: % T = (LTX) − (L0%)/(L100%) − (L0%) × 100. In addition, during the 1-h period of clot lysis lag time and maximal activity (also known as maximum velocity or Vmax) of the thrombolysis reaction were calculated. The lag time is defined as the time interval between the first absorbance reading (time = 0) and the line of maximum slope of the thrombolysis reaction. […]

For data set [7] the following is noted: human, in vivo, 0.5 mg/kg; cited from earlier work.
Text: as §7

No end group written: not given here. A value given as a limit tells only on which side of the number the result lay.

Results on 3 substances are retold here after article PMC9259545, “Impact of poly-arginine peptides R18D and R18 on alteplase and tenecteplase thrombolysis in vitro, and neuroprotective stability to proteolysis” (Journal of Thrombosis and Thrombolysis, 2022).

T1 sequence (P00750 36-562): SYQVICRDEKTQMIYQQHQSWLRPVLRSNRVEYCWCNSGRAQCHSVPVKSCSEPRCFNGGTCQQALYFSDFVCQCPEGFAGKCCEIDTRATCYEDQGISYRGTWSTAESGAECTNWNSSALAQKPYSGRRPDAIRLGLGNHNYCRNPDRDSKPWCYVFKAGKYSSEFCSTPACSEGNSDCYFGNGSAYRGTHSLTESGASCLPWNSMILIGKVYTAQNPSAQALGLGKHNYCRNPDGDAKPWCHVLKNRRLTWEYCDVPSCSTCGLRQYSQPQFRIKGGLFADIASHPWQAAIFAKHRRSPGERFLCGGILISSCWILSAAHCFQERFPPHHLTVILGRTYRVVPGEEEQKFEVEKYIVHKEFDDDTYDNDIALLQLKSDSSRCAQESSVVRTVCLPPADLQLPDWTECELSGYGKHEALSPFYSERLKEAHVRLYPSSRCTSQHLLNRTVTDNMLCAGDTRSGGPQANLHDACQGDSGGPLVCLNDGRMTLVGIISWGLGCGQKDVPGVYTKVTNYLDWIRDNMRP
T2 sequence (P00750 36-562 T138N/N152Q/K331A/H332A/R333A/R334A): as the sequence (P00750 36-562) above, with T103N, N117Q, K296A, H297A, R298A, R299A counted along it
trypsin (TrypLE Express), sequence (P35049 25-248): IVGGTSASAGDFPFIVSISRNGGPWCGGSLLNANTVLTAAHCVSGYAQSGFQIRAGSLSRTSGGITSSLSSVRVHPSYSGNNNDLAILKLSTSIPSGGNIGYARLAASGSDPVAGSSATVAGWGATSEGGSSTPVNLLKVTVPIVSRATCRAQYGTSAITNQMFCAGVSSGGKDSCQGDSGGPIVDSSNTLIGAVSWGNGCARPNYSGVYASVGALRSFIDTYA
Method for trypsin (TrypLE Express): Rat primary cortical cultures were established from embryonic day 18–19 Sprague–Dawley rats (Animal Resources Centre, WA, Australia). Briefly, cortical tissue was dissociated in 2 mL Hanks balanced salt solution (HBBS; Life Technologies, Australia) supplemented with 1.3 mM L-cysteine, 10 U/mL papain (Sigma-Aldrich, Australia) and 50 U/mL DNase (Sigma-Aldrich) by trituration with a fire-polished pipette. Dissociated neurons were transferred to a 15-mL tube containing 13 mL of cold Dulbecco’s modified Eagle’s medium (DMEM; Life Technologies)/10% horse serum (Life Technologies) and centrifuged for 4 min at 300×g. Neurons were gently resuspended in 1.5 mL of cold Neurobasal (NB; Life Technologies)/2% B27 supplement (B27; Life Technologies) and the neuronal cell concentration adjusted to 50,000 neurons/70 μL and 70 μL inoculated into each well of a 96-well microtiter plate (Nunc, USA) pre-treated wells. Pre-treated wells were coated with 50 μL of poly-D-lysine (50 μg/mL; 70–150 K; Sigma-Aldrich) for 2–3 h at room temperature before being replaced with 50 μL of NB/B27, 4% fetal bovine serum (Life Technologies), 1% horse serum, 62.5 μM glutamic acid, 25 μM 2-mercaptoethanol, 30 μg/mL penicillin and 50 μg/mL streptomycin and placed in a CO2 incubator (5% CO2, 95% air balance, 98% humidity, 37 °C) prior to seeding with neurons. Neuronal cultures were maintained in CO2 incubator. On day in vitro four, 60 µL fresh NB/B27 containing the mitotic inhibitor cytosine arabinofuranoside (final concentration 0.15 μM; Sigma-Aldrich) was added and neuronal culture were used on day in vitro 11 to 13.
As an alternative to trypsin, TrypLE Express (Thermo Fischer Scientific, Australia) a synthetic serine protease with trypsin-like activity was used. […] Hereafter, TrypLE Express is referred to as trypsin.
Trypsin solution was added to an equal volume of MEM/2% B27 (T:MEM/B27). […] Following the incubation, 50 µL of the T:MEM/B27 or HBSS:MEM/B27 peptide solution was used to treat neuronal culture as described below for the glutamic acid excitotoxicity model. […]

In the case of RRRRRRRRRRRRRRRRRR [R18], the “Effect on tPA lag time vs tPA control” value on tPA [1] (concurrent study, 0.5-16 µM peptide) was “did not significantly increase tPA lag time”. Besides, on tPA [1] (peptide 16 µM, concurrent study, 37 °C), the “Increase in tPA thrombolysis maximal activity” value stood at 48.36%. Further, the “Effect on percentage tPA thrombolysis at 1 h vs tPA control” value at tPA [1] (three peptides concurrently on the same plate, 0.5-16 µM peptide, Tris pH 7.4, 37 °C, 1 h, absorbance 510 nm, three independent assays pooled, n = 4, Dunnett's test) is reported as “did not significantly inhibit thrombolysis”. Moreover, on TNK [2] (0.5-16 µM peptide), the “Effect on TNK thrombolysis maximal activity vs TNK control” value is reported as “did not significantly impact TNK thrombolysis maximal activity”. Moreover, the “Effect on percentage TNK thrombolysis at 1 h vs TNK control” value at TNK [2] (0.5-16 µM peptide, 37 °C, 1 h) is given as “did not significantly inhibit TNK thrombolysis”. The “Increase in TNK lag time” value at TNK [2] (peptide 8 µM, 37 °C) turned out to be 5.53 min. The “Increase in lag time (time to the commencement of thrombolysis)” value in the data set on tPA or TNK (range over peptide concentrations 0.25-16 µM and both thrombolytics, 1-h assay) fell in the range of 0 to 5.53 min. For the same substance, the “Effect on maximal activity of the thrombolysis reaction” value in the data set on tPA or TNK (summary in abstract) is on record as “appeared to increase the maximal activity”. Further, the “Resistance to degradation by tPA” value at tPA [3] (inferred from retained neuroprotection, peptide 2 µM, tPA 170 nM) is “resistant to degradation”. Moreover, the “Neuroprotective efficacy after incubation with tPA” value at tPA [3] (peptide 2 µM in MEM/B27 with tPA 10 µg/mL (170 nM), 37 °C CO2 incubator, then rat cortical neurons, glutamic acid 100 µM 5 min, MTS viability at 20-24 h, N = 4-8) is “a similar and a high level of neuroprotective efficacy”. The “Resistance to degradation by TNK” value on TNK [4] (inferred from retained neuroprotection, peptide 2 µM, TNK 170 nM) was “resistant to degradation”. Besides, at TNK [4] (peptide 2 µM in MEM/B27 with TNK 10 µg/mL (170 nM), 37 °C CO2 incubator, then rat cortical neurons, glutamic acid 100 µM 5 min, MTS viability at 20-24 h, N = 4-8), the “Neuroprotective efficacy after incubation with TNK” value was “a similar and a high level of neuroprotective efficacy”. Besides, on trypsin (TrypLE Express), the “Resistance to degradation by trypsin” value is “only R18D is resistant”. Moreover, in the data set with plasmin, the “Neuroprotective properties in the glutamic acid excitotoxicity injury model when pre-incubated with plasmin” value is reported as “not” and the “Sensitivity to proteolytic degradation by plasmin” value is listed as “sensitive”.
As for “YGRKKRRQRRRKLSSIESDV [NA-1, reference compound]”, in the data set with plasmin, the “Sensitivity to proteolytic degradation by plasmin” value is “sensitive”. In addition, on tPA [5], the “Degradation when incubated with tPA” value was “is not degraded”. Also, in data set [6], the “In vivo peak plasma concentration” value was 1 to 5 µM and the Plasma half-life was 5 to 15 min.
“tPA: recombinant tissue plasminogen activator”: in the data set with whole blood halo clot, the “Clot lysis after 1-h” value is “approximately 90%”. In addition, in data set [7], the Serum concentration is reported as no more than 30 nM.
